Here are results for one compound from ChEMBL document CHEMBL1150087, “Structural Revision of Physalin H Isolated from Physalis angulata” (1995).

Active and inactive are the calls of the source. The rule behind the calls is not given here.

This test has as its system HeLa. Kind of test: Cytotoxicity against human HeLa cells. The class given is functional.

As to `C[C@@]12C[C@H]3OC(=O)[C@@H]1CO[C@@]14O[C@]5([C@H]2C1=O)[C@@](O)(CC[C@H]1[C@H]4C[C@@H](O)[C@@]2(O)CC=CC(=O)[C@]12C)C(=O)O[C@@]35C`, the ID50 result was “inactive”.
